Assay results taken from patent US20100286069A1, “CATIONIC PEPTIDE FOR DELIVERING AN AGENT INTO A CELL” (priority 2007, published 2010).
Where no end group is shown, it is not given here.

Columns and labels:
HEK293 cells [1] = assay: In vitro luciferase expression in HEK293 (Example 1); assay type: cell-based, human
Method: (§1) In vitro luciferase and GFP expression: HEK 293 and HepG2 cells were maintained in Dulbecco's modified Eagle's medium (DMEM) and 4T1 cells were cultured in RPMI 1640 growth medium at 37° C. with 5% CO2. All growth media used were completed with 10% fetal bovine serum, 100 μg/mL of streptomycin and 100 U/ml of penicillin.
(§2) One day before transfection, cells were seeded at a density that depended on the cell line and type of experiments. For the luciferase transfection assay, 0.5 mL of medium containing 5-8×10^4 cells were seeded into each well of a 24-well plate, while 1.0 mL of medium containing 1.8-2.0×10^5 cells were pipetted into each well of a 12-well plate for GFP expression. Peptide/DNA complexes were formed at various N/P ratios in 10 mM PBS (pH 7.0) by dripping equivolume solutions of peptide into DNA. The mixture was then vortexed for ˜10 seconds and left to stand for at least 30 minutes before usage. Meanwhile, all media were replaced with fresh ones. […]
(§3) Analysis for luciferase expression was carried out after 3 days. […] The relative light unit (RLU) was measured with a luminometer (Lumat LB 9507, EG&G Berthold) and normalized against the protein concentration as measured with a bicinchoninic acid protein assay kit (Pierce). Luciferase activity was finally expressed as RLU/mg protein ±standard deviation of at least 4 samples. […]

HepG2 cells = assay: In vitro luciferase expression in HepG2 (Example 1); assay type: cell-based, human
Method: as §1, §2, §3

HEK293 cells [2] = assay: GFP transfection assay in HEK293; assay type: cell-based, human
Method: as §1, §2
For the GFP transfection assay, cells were harvested after 2 days. […] The percentage of cells expressing GFP was then determined using a flow cytometer (FACSCalibur, Becton Dickinson) from 10,000 events and reported as a mean±standard deviation of at least 4 samples. […]

DNA = assay: Kinetics of DNA capture (PicoGreen); assay type: binding
Method: Upon condensation of the DNA, however, PicoGreen becomes excluded resulting in a drop in florescent intensity. Making use of this behavior, the kinetics of the DNA capturing process was traced and quantified. At time=0, the peptide solution was dripped into the DNA solution and vortexed for ˜10 seconds. At appropriate time intervals, 10 μL of the complex solution was taken out and mixed with 990 μL of PicoGreen working solution (diluted 400 times from its stock solution with TE buffer, pH 7.3). The fluorescence emission spectrum was then recorded with a Fluorolog LFI 3751 fluorescence spectrometer (Jobin Yvon Horiba). The excitation wavelength used was 480 nm and the silts were set to 4 nm. The fluorescence area intensity at any time point expressed as a percentage of the fluorescence intensity obtained with the initial concentration of DNA (before mixing with peptide) was used to reflect the concentration of uncaptured/loosely captured DNA. A profile was plotted to trace the temporal evolution of the DNA capturing process. Blanks and background were corrected for in all calculations.
To further understand the efficiency and kinetics of DNA capture by the peptides, PicoGreen was used as a sensitive fluorescence probe. […] This behavior can be employed to trace the temporal evolution of free/loosely bound DNA in solution.

[3] = MTT cytotoxicity assay in 4T1 (Example 1); assay type: cell-based; conditions: mouse, 4T1 cells; read-out: cells viable at peak luciferase expression
Method: Cytotoxicity assay: Cells were seeded onto 96-well plates at a density of 6-10×10^3 cells/well. After 24 hours, all media were replaced with fresh ones and 10 μL of sample was introduced into each well. The sample consisted of either pure peptide or […] dissolved in the medium at the desired concentration. After 4 hours, all media were aspirated and replaced with fresh ones. Cytotoxicity analysis was carried out 3 days later by first replacing all wells with fresh media and adding 20 μL of MTT (5 mg/mL in PBS). After incubating for another 3 hours, all wells were carefully aspirated and replaced with 0.15 mL of DMSO to dissolve the internalized purple formazan crystals. The solution was homogenised and the relative colour intensity was measured with a microplate reader (PowerWave X, Bio-Tek Inc.). A test wavelength of 550 nm and a reference wavelength of 690 nm were used. Cell viability was represented by the average of (absorbance550 nm−absorbance690 nm) of the sample expressed as a percentage of the intensity of the controls ±standard deviation. Each data point was repeated at least 8 times.
For complexes of F, I and W, a peptide concentration of 0.02 and 0.10 mg/mL will approximately correspond to N/P ratio 5 and 25, respectively. For H, a peptide concentration of 0.03 and 0.09 mg/mL will approximately correspond to N/P ratio 10 and 30. […]

[4] = Zeta potential of pure peptide; assay type: physicochemical
4T1 cells = assay: In vitro luciferase expression in 4T1 (Example 1); assay type: cell-based, mouse
Method: as §1, §2, §3

plasmid DNA = assay: Agarose gel electrophoresis DNA binding assay (Example 1); conditions: 10 mM PBS pH 7.0; for N/P ratio at which bulk electrophoretic migration of DNA is retarded: N/P = arginine residues to DNA phosphorus
Method: DNA binding and protection assays: Agarose gel electrophoresis was conducted to study the DNA binding ability of the peptides. The peptide/DNA complexes containing 2.5 μg of DNA per 50 μL of solution were formed at various N/P ratios. The complex solution (10 μL), together with 2 μL of loading dye (Promega), were then loaded into the wells of a 1.0 wt % agarose gel preloaded with 2 μL of ethidium bromide (per 50 mL of gel solution), and electrophoresed at 80 V for 50 minutes prior to imaging (ChemiGenius Q, Syngene).
To evaluate the ability of the peptides to fully condense DNA so as to prevent its premature degradation en route to the nuclei of cells, plasmid DNA encoding the 6.4 kb firefly luciferase (pCMV-luciferase VR1255_C) driven by the cytomegalovirus (CMV) promoter (Carl Wheeler, Vical, U.S.A.) was bound to each peptide in 10 mM phosphate-buffered saline (PBS, pH 7.0) at various N/P ratios (defined here as the molar ratio of arginine residues in the peptide to the phosphorus content in DNA). Gel electrophoresis assays were then performed.

[5] = tested on: subcutaneous 4T1 breast tumors; assay: In vivo luciferase expression in 4T1 tumor-bearing mice
Method: In vivo luciferase expression: Female Balb/c mice (Centre for Animals Resources, National University of Singapore) weighing 18-20 g were subcutaneously injected with 0.1 mL of serum-free RPMI 1640 containing 4×10^5 4T1 cells. A tumor was then allowed to develop in each mouse for 10-12 days. PEI and different formulations of I/DNA complexes were prepared as above, and 30 μl of sample containing 4 μg of DNA was injected directly into each tumor. The tumor tissues were harvested two days later. To analyse for luciferase activity, each tumor was first thoroughly homogenised in lysis buffer, followed by two further freeze-thaw cycles. The mixture was then centrifuged and assayed for its luciferase activity as described above. Expression level was given as RLU/mg protein ±standard deviation of at least 4 mice.
Finally, the in vivo gene transfection capacity of the peptides was evaluated by performing luciferase expression experiments with peptide I on mice bearing subcutaneous 4T1 breast tumors. […] This may be because the amount of DNA being delivered by the supernatant and sediment formulations was smaller. The large DNA complexes might also not be uniformly distributed in the tumor, limiting the cellular uptake of the large complexes. […]

[6] = tested on: HEK293, HepG2 and 4T1 cells; assay: In vitro luciferase expression, all three cell lines (Example 1); assay type: cell-based, human, mouse; conditions: all cell lines tested
Method: as §1, §2, §3

FFFFFHHHHRRRRRRRR-NH2 [F, NH2—F5H4R8—CONH2]
luciferase expression level compared among the peptides (HEK293 cells [1]): highest luciferase expression level
luciferase expression level, times that of PEI (HEK293 cells [1]): 0.8 times
luciferase expression level compared among the peptides (HepG2 cells): highest luciferase expression level
luciferase expression level, times that of PEI (HepG2 cells): 0.2 times
proportion of cells transfected with the GFP gene, comparison (HEK293 cells [2]): transfected more HEK293 cells with the GFP gene than H

IIIIIHHHHRRRRRRRR-NH2 [I, NH2—I5H4R8—CONH2]
quenching of PicoGreen fluorescence compared with H (DNA): to a greater extent
viability at 4 h [3]: ~90%
zeta potential of pure peptide [4]: 15.8±0.2 mV
luciferase expression level compared among the peptides (4T1 cells; 4T1): optimal
peak luciferase expression level, times higher than PEI (4T1 cells; 4T1 cells, PEI branched Mw 25,000): 6.4 times
N/P ratio from which ethidium bromide is completely excluded from the condensed DNA (plasmid DNA): ≥ 5
N/P ratio at which bulk electrophoretic migration of DNA is retarded (plasmid DNA): 2
gene expression in mouse breast cancer model compared with PEI [5]: much more efficiently than PEI

NH2—H4R8—CONH2
zeta potential of pure peptide [4]: 8.0±0.2 mV
N/P ratio at which bulk electrophoretic migration of DNA is retarded (plasmid DNA): 5

NH2—W5H4R8—CONH2 (H-WWWWWHHHHRRRRRRRR-NH2)
gene expression level compared among the peptides [6]: lowest gene expression level
